Columns and labels:
Assay in all cases: relative viability (nuclei count vs DMSO), 5 days (fraction); higher = more cells survive
Zebularine + Olaparib = compound: O=c1ncccn1[C@@H]1O[C@H](CO)[C@@H](O)[C@H]1O [Zebularine] + O=C(c1cc(Cc2n[nH]c(=O)c3ccccc23)ccc1F)N1CCN(C(=O)C2CC2)CC1 [Olaparib] (partner 8 µM)
How it was run: (§1)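 Relative viability was taken as the ratio of nuclei in treated wells to nuclei in vehicle wells. Lung cancer cell lines in 1536-well plates received compounds by pin tool one day after seeding, either one drug alone or a fixed anchor-drug dose plus five library-drug doses (not always all listed) in √10 steps. Nuclei were counted on 4× images after 5 days of treatment, and values are medians of duplicate plates.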

Zebularine + Crizotinib = compound: O=c1ncccn1[C@@H]1O[C@H](CO)[C@@H](O)[C@H]1O [Zebularine] + C[C@@H](Oc1cc(-c2cnn(C3CCNCC3)c2)cnc1N)c1c(Cl)ccc(F)c1Cl [Crizotinib] (partner 1 µM)
How it was run: as §1

BI-D1870 + Linsitinib = compound: CC(C)CCN1c2nc(Nc3cc(F)c(O)c(F)c3)ncc2N(C)C(=O)C1C [BI-D1870] + C[C@]1(O)C[C@@H](c2nc(-c3ccc4ccc(-c5ccccc5)nc4c3)c3c(N)nccn32)C1 [Linsitinib] (partner 1 µM)
How it was run: as §1

Zebularine + Pemetrexed = compound: O=c1ncccn1[C@@H]1O[C@H](CO)[C@@H](O)[C@H]1O [Zebularine] + Nc1nc2[nH]cc(CCc3ccc(C(=O)N[C@@H](CCC(=O)O)C(=O)O)cc3)c2c(=O)[nH]1 [Pemetrexed] (partner 0.2 µM)
How it was run: as §1

Cell Line	relative viability (Zebularine + Olaparib; first compound 1 µM)	relative viability (Zebularine + Olaparib; first compound 3.162 µM)	relative viability (Zebularine + Olaparib; first compound 10 µM)	relative viability (Zebularine + Olaparib; first compound 31.62 µM)	relative viability (Zebularine + Olaparib; first compound 100 µM)	relative viability (Zebularine + Crizotinib; first compound 1 µM)	relative viability (Zebularine + Crizotinib; first compound 3.162 µM)	relative viability (Zebularine + Crizotinib; first compound 10 µM)	relative viability (Zebularine + Crizotinib; first compound 31.62 µM)	relative viability (Zebularine + Crizotinib; first compound 100 µM)	relative viability (BI-D1870 + Linsitinib; first compound 0.04 µM)	relative viability (BI-D1870 + Linsitinib; first compound 0.1265 µM)	relative viability (BI-D1870 + Linsitinib; first compound 0.4 µM)	relative viability (BI-D1870 + Linsitinib; first compound 1.265 µM)	relative viability (BI-D1870 + Linsitinib; first compound 4 µM)	relative viability (Zebularine + Pemetrexed; first compound 1 µM)	relative viability (Zebularine + Pemetrexed; first compound 3.162 µM)	relative viability (Zebularine + Pemetrexed; first compound 10 µM)	relative viability (Zebularine + Pemetrexed; first compound 31.62 µM)	relative viability (Zebularine + Pemetrexed; first compound 100 µM)
PC-14	0.179	0.121	0.208	0.136	0.122	1.01	0.81	0.271	0.141	0.122	1.04	0.919	0.908	0.91	0.633	0.136	0.139	0.0749	0.0697	0.0552
NCI-H650	0.351	0.332	0.307	0.28	0.177	0.598	0.652	0.587	0.43	0.334	1.12	0.733	0.905	0.704	0.855	0.918	1.03	0.757	0.454	0.286
NCI-H1666	0.812	0.803	0.65	0.802	0.75	1.01	0.783	1.05	1.02	0.596	0.921	0.814	0.865	0.843	0.872	0.878	0.788	0.753	0.824	0.791
NCI-H2085	0.782	0.709	0.568	0.482	0.399	0.986	0.814	0.827	0.804	0.488	0.93	0.81	0.896	0.885	0.68	0.913	0.881	0.753	0.877	0.495
